Laboratory results published in ChEMBL document CHEMBL3046695, “Structure-antifeedant activity relationship of clerodane diterpenoids. Comparative study with withanolides and azadirachtin” (2000).

Tested on: Tenebrio molitor
Test: Antifeedant activity against third-instar larvae Tenebrio molitor in compound treated carrot slices assessed as feeding inhibition at 100 ppm
Assay type: functional
Settings: in Daucus carota

| SMILES | inhibition at 100 ppm |
| --- | --- |
| CC1=C(C)C(=O)OC(C2CO[C@@]3(O)C[C@H]4[C@@H](C[C@@H](O)[C@@]5(O)CC=CC(=O)[C@]45C)[C@@H]4CC[C@]2(O)C43)C1 (stereo not given in full) | 31.6% |
| C[C@H](c1ccc2c(c1)CC[C@H]1[C@H]2C[C@@H]2O[C@@]23CC=CC(=O)[C@]13C)[C@@H]1C[C@@]2(C)O[C@@]2(C)[C@@H](O)O1 | 29.9% |
| CC(=O)O[C@H](C[C@@]1(C)[C@H](C)CC[C@]2(C)[C@H]1CCC[C@@]21CO1)/C(=C/CO)CO | 51.9% |
| C=C1CCC[C@H]2[C@@](C)(C/C=C(/CO)CCO)[C@H](C)CC[C@@]12C | 57.3% |
| CC(=O)OC[C@@]12[C@@H](OC(C)=O)C[C@@H](C)[C@]3(C[C@H](c4ccoc4)OC3=O)[C@H]1CCCC2(O)O | 45% |
| CC(=O)OC[C@@]12[C@@H](OC(C)=O)C[C@@H](C)[C@]3(C[C@H](c4ccoc4)OC3=O)[C@H]1CCC[C@@H]2C=O | 41% |
| COC1C=C([C@H]2C[C@@]3(C(=O)O2)[C@H](C)C[C@H](OC(C)=O)[C@]2(COC(C)=O)[C@@H]3CCC[C@]23CO3)C(OC)O1 (stereo not given in full) | 47.3% |
| CC(=O)OC[C@@]12[C@@H](OC(C)=O)C[C@@H](C)[C@]3(C[C@H](c4ccoc4)OC3=O)[C@H]1CC[C@H](OC(C)=O)[C@]21CO1 | 30.6% |
| CC1=CC2C[C@@H]3[C@@]1(CC[C@H](C)[C@@]31C[C@@H](c3ccoc3)OC1=O)C(=O)O2 | 62.7% |
| C[C@H]1CC[C@@]23C(=O)OC(C[C@H]2[C@]12C[C@@H](c1ccoc1)OC2=O)[C@H]1O[C@]13C | 57.9% |
| C[C@]12C[C@H](c3ccoc3)OC(=O)[C@H]1CC[C@@]13COC(=O)[C@H]1C=CC[C@@H]23 | 47.3% |
| C[C@]12C[C@H](C3CCOC3)OC(=O)[C@@H]1CC[C@@]13COC(=O)[C@H]1CCC[C@@H]23 (stereo not given in full) | 49.4% |
| C[C@]12C[C@H](c3ccoc3)OC[C@@H]1CC[C@@]13COC(=O)[C@H]1CCC[C@@H]23 | 46% |
| C[C@]12C[C@H](c3ccoc3)OC(=O)[C@@H]1[C@H](O)C[C@@]13COC(=O)C1=CCC[C@H]32 | 26.6% |
| C[C@]12C[C@H](c3ccoc3)OC(=O)[C@@H]1CC[C@@]13COC(=O)C1=CCC[C@H]32 | 22.6% |
| C[C@@H]1CC[C@@]2(CO)C(CO)=CCC[C@H]2[C@@]1(C)CCc1ccoc1 | 48.7% |
| CC(=O)OC[C@@]12[C@@H](OC(C)=O)C[C@@H](C)[C@](C)(CC(=O)c3ccoc3)[C@@H]1CCC[C@]21CO1 | 58% |
| CC(=O)OC[C@@]12[C@@H](OC(C)=O)C[C@@H](C)[C@](C)(C[C@H](OC(C)=O)c3ccoc3)[C@@H]1CCC[C@]21CO1 | 31.4% |
| C[C@@H]1[C@H](O)C[C@@]23COC(=O)[C@H]2CC[C@H](O)[C@H]3[C@@]1(C)CCC1CCOC1 (stereo not given in full) | 48.4% |
| C[C@@H]1CC[C@@]23COC(=O)C2=CCC[C@H]3[C@@]1(C)CCC1COC(=O)C1 (stereo not given in full) | 62.6% |
| C[C@@H]1[C@H](O)C[C@@]23COC(=O)C2=CC[C@H](O)[C@H]3[C@@]1(C)CCc1ccoc1 | 31.3% |
| C[C@@H]1CC[C@@]23COC(=O)C2=CCC[C@H]3[C@@]1(C)CCc1ccoc1 | 31% |
| C/C=C(\C)C(=O)O[C@H]1C[C@@H](OC(C)=O)[C@@]2(C(=O)OC)CO[C@H]3[C@@H](O)[C@@](C)([C@]45O[C@@]4(C)[C@@H]4C[C@H]5O[C@@H]5OC=C[C@@]54O)[C@H]4[C@]1(CO[C@]4(O)C(=O)OC)[C@@H]32 [AZADIRACHTIN A] | 29.6% |
| CC(=O)OC[C@@]12[C@@H](OC(C)=O)C[C@@H](C)[C@]3(C[C@H](c4ccoc4)OC3=O)[C@H]1CCC[C@]21CO1 [MONTANIN C] | 25% |
| CC1=C(C)[C@H]([C@H]2O[C@@]3(O)C[C@H]4[C@@H](C[C@H]5O[C@]56CC=CC(=O)[C@]46C)[C@@H]4CC[C@@](O)([C@@H]2C)[C@]43C)OC1=O [TRECHONOLIDE A] | 44.7% |
